# Literature values as cited in US20210220455A1, “COMPOSITIONS AND METHODS FOR PERSONALIZED NEOPLASIA VACCINES” (The Broad Institute, Inc., priority 2013, published 2021).
# Columns and labels:
# healthy human volunteers = details: cited from earlier work
# [1] = tested on: ovarian carcinoma patients; details: cited from earlier work
substance,measurement,setting,value
Polyinosinic-Polycytidylic Acid-poly-L-lysine Carboxymethylcellulose [poly-ICLC],differentially expressed genes versus placebo,"healthy human volunteers; 8 volunteers, one single s.c. administration vs 4 placebo subjects",up to 212 genes
same,safety in human volunteer study,"healthy human volunteers; human, in vivo",safe
same,generation of NY-ESO-1-specific CD4+ and CD8+ T-cell and antibody responses,[1]; 1.4 mg poly-ICLC and Montanide added to OLP vs OLP alone or OLP and Montanide,markedly enhanced
same,patients showing induction of CD4+ and CD8+ T cell and antibody responses to the peptide,[1]; poly-ICLC with NY-ESO-1 peptide vaccine and Montanide,> 90%
